Literature values as cited in patent US20100136094A1, “Systems for modulating inflammation” (Searete LLC, a limited liability corporation of the state …, priority 2008, published 2010).

Assays:
[1] = test system: proteasomal activity in cultured breast cancer cells; conditions: on binding copper, Chen et al. 2006
Src family kinase = conditions: Sanjuan et al. 2006
[2] = 400 mg infused over one hour, single agent; Looareesuwan et al. 1986
[3] = test system: Src family kinases (Src, Lck, Yes, Fyn); conditions: at nanomolar concentrations
Epha1 = conditions: at nanomolar concentrations
mice = conditions: Nakamura et al. 2007
Toll-like receptor 4 = Toll-like receptor 4 (Homo sapiens, UniProt O00206); conditions: Nakamura et al. 2007
Sequence of Toll-like receptor 4 (O00206 24-839, species assumed): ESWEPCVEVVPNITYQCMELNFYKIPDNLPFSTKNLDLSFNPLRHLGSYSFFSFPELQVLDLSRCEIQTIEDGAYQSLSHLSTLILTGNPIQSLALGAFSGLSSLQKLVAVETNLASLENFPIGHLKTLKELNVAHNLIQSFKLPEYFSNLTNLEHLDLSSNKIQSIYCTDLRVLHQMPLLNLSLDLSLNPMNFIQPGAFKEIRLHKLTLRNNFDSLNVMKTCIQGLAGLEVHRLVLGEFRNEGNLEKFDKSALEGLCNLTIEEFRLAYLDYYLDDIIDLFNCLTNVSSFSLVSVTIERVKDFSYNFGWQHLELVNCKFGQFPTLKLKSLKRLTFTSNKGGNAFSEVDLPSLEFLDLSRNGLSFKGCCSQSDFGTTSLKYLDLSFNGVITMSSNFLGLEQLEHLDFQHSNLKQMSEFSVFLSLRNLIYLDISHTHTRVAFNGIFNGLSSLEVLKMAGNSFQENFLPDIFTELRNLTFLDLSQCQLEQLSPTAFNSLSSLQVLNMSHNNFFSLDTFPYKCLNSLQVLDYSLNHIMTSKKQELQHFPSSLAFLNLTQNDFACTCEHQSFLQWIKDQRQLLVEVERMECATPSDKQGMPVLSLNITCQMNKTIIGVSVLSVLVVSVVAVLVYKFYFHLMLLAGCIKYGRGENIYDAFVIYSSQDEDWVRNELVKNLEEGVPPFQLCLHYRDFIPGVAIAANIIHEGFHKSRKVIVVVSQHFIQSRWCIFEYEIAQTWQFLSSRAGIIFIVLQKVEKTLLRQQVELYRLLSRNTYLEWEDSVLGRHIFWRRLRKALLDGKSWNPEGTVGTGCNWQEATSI

## CCN(CC)C(=S)SSC(=S)N(CC)CC [Disulfiram, 1-(diethylthiocarbamoyldisulfanyl)-N,N-diethyl-methanethioamide]
[1]
  proteasomal activity: inhibits proteasomal activity
Aldehyde dehydrogenase
  inhibition of aldehyde dehydrogenase: inhibits aldehyde dehydrogenase without toxicity

## CCN(CC)CCCC(C)Nc1ccnc2cc(Cl)ccc12 (centres unmarked) [Chloroquine]
Src family kinase
  inhibition of CpG-induced Src family kinase activation, or its dependent cellular responses: does not inhibit

## CCN(CC)CCCC(C)Nc1ccnc2cc(Cl)ccc12.O=P(O)(O)O.O=P(O)(O)O (centres unmarked) [chloroquine phosphate, 7-chloro-4-[[4-(diethylamino)-1-methylbutyl]amino]quinoline phosphate (1:2)]
[2]
  tolerability of intravenous infusion: without complication

## Cc1nc(Nc2ncc(C(=O)Nc3c(C)cccc3Cl)s2)cc(N2CCN(CCO)CC2)n1.O [dasatinib, N-(2-chloro-6-methylphenyl)-2-[[6-[4-(2-hydroxyethyl)-1-piperazinyl]-2-methyl-4-pyrimidinyl]amino]-5-thiazolecarboxamide, monohydrate]
[3]
  inhibition of Src family kinases (Src, Lck, Yes, Fyn): inhibits
Epha1
  inhibition of Epha1: inhibits

## Cl.Cl.Nc1ccccc1Oc1ccc2c(N)nsc2c1 [Example M62812, 3-amino-6-(2-aminophenoxy)-1,2-benzisothiazole dihydrochloride]
mice
  prevention of lethal septic shock: prevents lethal septic shock
Toll-like receptor 4
  inhibition of Toll-like receptor 4: inhibitor
